Assay results as given in the NIST ThermoML archive (doi:10.1016/j.jct.2016.02.007).
Numbers after ± are expanded uncertainties.

Assay: wn = mass fraction of the nth substance listed
Details: 101.3 kPa, Liquid, Vibrating tube method

## CN(C)CCCO [3-dimethylamino-1-propanol] + O
293.15 K, w1 = 0.1
  mass density: 992.9 ± 4.9 kg/m3
293.15 K, w1 = 0.2
  mass density: 989.7 ± 4.8 kg/m3
293.15 K, w1 = 0.3
  mass density: 986.6 ± 5 kg/m3
293.15 K, w1 = 0.4
  mass density: 981.7 ± 5 kg/m3
293.15 K, w1 = 0.5
  mass density: 975.1 ± 5.2 kg/m3
293.15 K, w1 = 0.6
  mass density: 962.4 ± 5.5 kg/m3
293.15 K, w1 = 0.7
  mass density: 948.3 ± 5.7 kg/m3
293.15 K, w1 = 0.8
  mass density: 933.1 ± 6.1 kg/m3
293.15 K, w1 = 0.9
  mass density: 910.9 ± 6.7 kg/m3
293.15 K, w1 = 1
  mass density: 886.7 ± 4.8 kg/m3
298.15 K, w1 = 0.1
  mass density: 991.5 ± 4.9 kg/m3
298.15 K, w1 = 0.2
  mass density: 987.7 ± 4.9 kg/m3
298.15 K, w1 = 0.3
  mass density: 983.9 ± 4.9 kg/m3
298.15 K, w1 = 0.4
  mass density: 978.3 ± 5 kg/m3
298.15 K, w1 = 0.5
  mass density: 971.4 ± 5.2 kg/m3
298.15 K, w1 = 0.6
  mass density: 958.5 ± 5.5 kg/m3
298.15 K, w1 = 0.7
  mass density: 944.3 ± 5.7 kg/m3
298.15 K, w1 = 0.8
  mass density: 929.2 ± 6.1 kg/m3
298.15 K, w1 = 0.9
  mass density: 907.1 ± 6.7 kg/m3
298.15 K, w1 = 1
  mass density: 883 ± 4.8 kg/m3
303.15 K, w1 = 0.1
  mass density: 989.8 ± 4.9 kg/m3
303.15 K, w1 = 0.2
  mass density: 985.5 ± 4.9 kg/m3
303.15 K, w1 = 0.3
  mass density: 980.9 ± 5 kg/m3
303.15 K, w1 = 0.4
  mass density: 974.9 ± 5 kg/m3
303.15 K, w1 = 0.5
  mass density: 967.6 ± 5.2 kg/m3
303.15 K, w1 = 0.6
  mass density: 954.6 ± 5.6 kg/m3
303.15 K, w1 = 0.7
  mass density: 940.2 ± 5.7 kg/m3
303.15 K, w1 = 0.8
  mass density: 925.2 ± 6.1 kg/m3
303.15 K, w1 = 0.9
  mass density: 903.2 ± 6.7 kg/m3
303.15 K, w1 = 1
  mass density: 879.1 ± 4.8 kg/m3
308.15 K, w1 = 0.1
  mass density: 987.9 ± 5 kg/m3
308.15 K, w1 = 0.2
  mass density: 983.1 ± 4.9 kg/m3
308.15 K, w1 = 0.3
  mass density: 978 ± 5 kg/m3
308.15 K, w1 = 0.4
  mass density: 971.4 ± 5 kg/m3
308.15 K, w1 = 0.5
  mass density: 963.8 ± 5.3 kg/m3
308.15 K, w1 = 0.6
  mass density: 950.6 ± 5.6 kg/m3
308.15 K, w1 = 0.7
  mass density: 936.1 ± 5.7 kg/m3
308.15 K, w1 = 0.8
  mass density: 921.2 ± 6.1 kg/m3
308.15 K, w1 = 0.9
  mass density: 899.2 ± 6.7 kg/m3
308.15 K, w1 = 1
  mass density: 875.1 ± 4.8 kg/m3
313.15 K, w1 = 0.1
  mass density: 985.9 ± 5 kg/m3
313.15 K, w1 = 0.2
  mass density: 980.4 ± 5 kg/m3
313.15 K, w1 = 0.3
  mass density: 974.8 ± 5 kg/m3
313.15 K, w1 = 0.4
  mass density: 967.8 ± 5.1 kg/m3
313.15 K, w1 = 0.5
  mass density: 959.9 ± 5.3 kg/m3
313.15 K, w1 = 0.6
  mass density: 946.5 ± 5.6 kg/m3
313.15 K, w1 = 0.7
  mass density: 932 ± 5.7 kg/m3
313.15 K, w1 = 0.8
  mass density: 917.1 ± 6.1 kg/m3
313.15 K, w1 = 0.9
  mass density: 895.2 ± 6.7 kg/m3
313.15 K, w1 = 1
  mass density: 871.2 ± 4.8 kg/m3
318.15 K, w1 = 0.1
  mass density: 983.6 ± 5 kg/m3
318.15 K, w1 = 0.2
  mass density: 977.3 ± 5 kg/m3
318.15 K, w1 = 0.3
  mass density: 971.6 ± 5 kg/m3
318.15 K, w1 = 0.4
  mass density: 964.2 ± 5.1 kg/m3
318.15 K, w1 = 0.5
  mass density: 956 ± 5.3 kg/m3
318.15 K, w1 = 0.6
  mass density: 942.4 ± 5.6 kg/m3
318.15 K, w1 = 0.7
  mass density: 927.8 ± 5.7 kg/m3
318.15 K, w1 = 0.8
  mass density: 912.9 ± 6.1 kg/m3
318.15 K, w1 = 0.9
  mass density: 891.1 ± 6.7 kg/m3
318.15 K, w1 = 1
  mass density: 867.2 ± 4.8 kg/m3
323.15 K, w1 = 0.1
  mass density: 981.2 ± 5 kg/m3
323.15 K, w1 = 0.2
  mass density: 975 ± 5 kg/m3
323.15 K, w1 = 0.3
  mass density: 968.2 ± 5.1 kg/m3
323.15 K, w1 = 0.4
  mass density: 960.4 ± 5.1 kg/m3
323.15 K, w1 = 0.5
  mass density: 952.1 ± 5.3 kg/m3
323.15 K, w1 = 0.6
  mass density: 938.2 ± 5.6 kg/m3
323.15 K, w1 = 0.7
  mass density: 923.6 ± 5.7 kg/m3
323.15 K, w1 = 0.8
  mass density: 908.7 ± 6.1 kg/m3
323.15 K, w1 = 0.9
  mass density: 887 ± 6.7 kg/m3
323.15 K, w1 = 1
  mass density: 863.1 ± 4.8 kg/m3
328.15 K, w1 = 0.1
  mass density: 978.6 ± 5 kg/m3
328.15 K, w1 = 0.2
  mass density: 972 ± 5 kg/m3
328.15 K, w1 = 0.3
  mass density: 964.7 ± 5.1 kg/m3
328.15 K, w1 = 0.4
  mass density: 956.7 ± 5.1 kg/m3
328.15 K, w1 = 0.5
  mass density: 948 ± 5.3 kg/m3
328.15 K, w1 = 0.6
  mass density: 934 ± 5.6 kg/m3
328.15 K, w1 = 0.7
  mass density: 919.3 ± 5.7 kg/m3
328.15 K, w1 = 0.8
  mass density: 904.5 ± 6.1 kg/m3
328.15 K, w1 = 0.9
  mass density: 882.9 ± 6.6 kg/m3
328.15 K, w1 = 1
  mass density: 859.1 ± 4.8 kg/m3
333.15 K, w1 = 0.1
  mass density: 975.9 ± 5.1 kg/m3
333.15 K, w1 = 0.2
  mass density: 968.9 ± 5.1 kg/m3
333.15 K, w1 = 0.3
  mass density: 961 ± 5.1 kg/m3
333.15 K, w1 = 0.4
  mass density: 952.8 ± 5.1 kg/m3
333.15 K, w1 = 0.5
  mass density: 943.9 ± 5.4 kg/m3
333.15 K, w1 = 0.6
  mass density: 929.7 ± 5.6 kg/m3
333.15 K, w1 = 0.7
  mass density: 915 ± 5.7 kg/m3
333.15 K, w1 = 0.8
  mass density: 900.2 ± 6.1 kg/m3
333.15 K, w1 = 0.9
  mass density: 878.7 ± 6.6 kg/m3
333.15 K, w1 = 1
  mass density: 855 ± 4.8 kg/m3
338.15 K, w1 = 0.1
  mass density: 973.1 ± 5.1 kg/m3
338.15 K, w1 = 0.2
  mass density: 965.8 ± 5.1 kg/m3
338.15 K, w1 = 0.3
  mass density: 957.9 ± 5.1 kg/m3
338.15 K, w1 = 0.4
  mass density: 948.9 ± 5.2 kg/m3
338.15 K, w1 = 0.5
  mass density: 939.8 ± 5.4 kg/m3
338.15 K, w1 = 0.6
  mass density: 925.4 ± 5.7 kg/m3
338.15 K, w1 = 0.7
  mass density: 910.6 ± 5.7 kg/m3
338.15 K, w1 = 0.8
  mass density: 895.8 ± 6 kg/m3
338.15 K, w1 = 0.9
  mass density: 874.4 ± 6.6 kg/m3
338.15 K, w1 = 1
  mass density: 850.8 ± 4.8 kg/m3
343.15 K, w1 = 0.1
  mass density: 970.1 ± 5.1 kg/m3
343.15 K, w1 = 0.2
  mass density: 962.5 ± 5.2 kg/m3
343.15 K, w1 = 0.3
  mass density: 954.2 ± 5.1 kg/m3
343.15 K, w1 = 0.4
  mass density: 944.9 ± 5.2 kg/m3
343.15 K, w1 = 0.5
  mass density: 935.6 ± 5.4 kg/m3
343.15 K, w1 = 0.6
  mass density: 921 ± 5.7 kg/m3
343.15 K, w1 = 0.7
  mass density: 906.2 ± 5.6 kg/m3
343.15 K, w1 = 0.8
  mass density: 891.4 ± 5.9 kg/m3
343.15 K, w1 = 0.9
  mass density: 870.1 ± 6.6 kg/m3
343.15 K, w1 = 1
  mass density: 846.7 ± 4.8 kg/m3
